Assay [1] concerns the target T1, epidermal growth factor receptor-tyrosine kinase complex (Homo sapiens, UniProt P00533).
T1 construct: The membrane preparation was employed in the following measurement without solubilization; endogenous in cells; host or cells: A-431 (ATCC CRL1555), membrane preparation, not solubilized
Kind of assay: Tyrosine kinase inhibiting activity (A-431 membrane preparation, EGF-stimulated). In kind it is biochemical. The note with it: read-out: Tyrosine kinase inhibition rate; for inhibition at 1 µM: 1 μM in the reaction mixture; for inhibition at 10 µM: 10 μM in the reaction mixture. The procedure:
Tyrosine kinase inhibiting activity of the compound of the present invention was measured referring to a method for measuring tyrosine kinase activity by G. Carpenter or by S. Cohen et al. [J. Biol. Chem., 254, 4884(1979); J. Biol. Chem., 257, 1528(1982)].
Cell line A-431 derived from human carcinoma (ATCC CRL1555) was cultured at 37° C. under the condition of 5% CO2 in Dulbecco's modified Eagle's medium (made by NISSUE PHARMACEUTICAL CO., LTD.) containing 10% by volume fetal bovine serum, 50 μg/ml of streptomycin, 50 IU/ml of penicillin G and 50 μg/ml of kanamycin. […] The membrane preparation was employed in the following measurement without solubilization.
A test compound dissolved in dimethylsulfoxide (hereinafter referred to as "DMSO") was added to a mixture of 20 mM of N-2-hydroxyethylpiperazine-N'-2-ethanesulfonic acid buffer (pH 7.4), 1 mM of MnCl2, 7.5 μg of bovine serium albumin and the membrane preparation (10 μg as protein). After incubation at 0° C. for 5 minutes, 100 ng of epidermal growth factor (hereinafter referred to as "EGF") was added thereto and the mixture was further incubated at 0° C. for 15 minutes. [γ-^32 P]ATP (3000 Ci/mmol, 0.1 μCi) was added thereto to make final volume of 70 μl. After incubation at 0° C. for 15 minutes, 50 μl of the reaction mixture was soaked into Whatman 3 MM filter paper (made by Whatman Ltd.) and immediately the reaction was stopped by an aqueous solution of 10% by weight trichloroacetic acid containing 10 mM sodium pyrophosphate. The filter paper was sufficiently washed with the same solution and then washed with ethanol, and dried. Radioactivity present in the filter paper was measured by liquid scintillation counter (A). Also, radioactivity was measured in case of the reaction without EGF (B), the reaction without the test compound (C), and the reaction without both EGF and the test compound (D) as a control.
Tyrosine kinase inhibition rate (%) was calculated by the following equation. [formula]

For assay [2], the target named is T2, reverse transcriptase derived from Moloney-Murine Leukemia Virus (M-MLV) (Moloney murine leukemia virus, UniProt P03355).
T2 construct: reverse transcriptase derived from Moloney-Murine Leukemia Virus; purchased Pharmacia K. K
Kind of assay: Inhibiting activity against reverse transcriptase derived from M-MLV. In kind it is biochemical. The note with it: read-out: Inhibition rate (reverse transcriptase derived from M-MLV); for inhibition at 10 µM: 10 μM in the reaction mixture. The procedure:
There was found the following point by using reverse transcriptase derived from Moloney-Murine Leukemia Virus (hereinafter referred to as "M-MLV").
The compound of the present invention was dissolved in DMSO to give a 100 mM solution thereof. Then, the solution was diluted with distilled water containing DMSO to give a solution of the test compound having a defined concentration. A mixed ratio of DMSO and distilled water was adjusted so that the concentration of DMSO at this time is 10% by volume and a final concentration of DMSO at the beginning of a reaction is 1% by volume.
The thus prepared solution of the test compound was mixed with a solution containing 50 mM of Tris--HCl buffer (pH 8.3), 8 mM of MgCl2, 30 mM of NaCl, 50 mM of dithiothreitol (made by Wako Pure Chemical Industries Ltd.), 0.2 mM of thymidine-5'-triphosphate (made by Pharmacia K. K.) and 6 U/ml of reverse transciptase derived from M-MLV (made by Pharmacia K. K.), and preincubated at 37° C. for 30 minutes. After there was added thereto 10 μg/ml of polyadenylic acid (made by PL Biochemicals Co., Ltd.), 0.01 U/ml of oligodeoxy thymidylic acid (made by Pharmacia K. K.) and 10 μCi/ml of [methyl-^3 H] thymidine-5'-triphosphate (made by Amersham Japan Co., Ltd., 47 Ci/mmol) to give a reaction mixture, the mixture was further incubated at 37° C. for 30 minutes, followed by cooling with ice to stop the reaction.
The radioactivity incorporated into deoxyribonucleic acids was measured according to the method of Linteril et al (Science 170, 447 to 449 (1967)). A defined volume of the reaction mixture was soaked into DE-81 filter paper (made by Whatman Ltd.), the filter paper was washed with 5% by weight of Na2 HPO4 solution for three times, and with distilled water and ethanol successively, and then dried. Radioactivity contained in the filter paper was measured by liquid scintillation counter to give the each radioactivity of the test solution groups.
On the other hand, the same procedure as above was carried out using DMSO-distilled water without the test compound instead of using the test solution, to give the value of radioactivity of a control group.
Reverse transcriptase derived from M-MLV inhibition rate (%) was calculated by the following equation. [formula]

In assay [3] the test system is antigen-induced airway constriction. The assay can be described thus: Inhibitory activity against antigen-induced airway constriction in actively sensitized guinea pigs. Format: in vivo. The note with it: Cavia porcellus, iv, 3 minutes before antigen inhalation, read-out: Inhibition rate (airway constriction). The procedure: (3) Inhibitory activity against antigen-induced airway constriction in actively sensitized guinea pigs
That is, the sensitized guinea pigs (5 guinea pigs/group) were provided with artificial respiration by inserting a tracheal cannula under urethane anesthesia (1.5 g/kg body weight, intraperitoneal administration), and then, gallamine at 1 mg/kg body weight was injected intravenously to stop spontaneous respiration of the guinea pigs. Inhalation of 0.5% aqueous solution of ovalbumin was conducted using a nebulizer for 1 minute to increase antigen-induced airway constriction, at the same time, airway pressure was recorded through a transducer. Test compound was administered into jugular vein (i.v.) of the guinea pig 3 minutes before the antigen inhalation or administered orally (p.o.) 2 hours before the antigen inhalation. As a positive control compound, theophylline which was a drug for anti-asthma was used. The effect of the compound was estimated by calculating the maximum value of airway constriction (%) in comparison with the control group, according to the following equation. [formula]

Another assay concerns the target T3, 5-lipoxygenase (Cavia porcellus, UniProt A0A286X958).
T3 construct: The cytosol fraction was used as an enzyme solution; from tissue; host or cells: peritoneal exudate cells of casein-injected Hartley guinea pigs, 105,000×g cytosol
T3 sequence (A0A286X958 1-674): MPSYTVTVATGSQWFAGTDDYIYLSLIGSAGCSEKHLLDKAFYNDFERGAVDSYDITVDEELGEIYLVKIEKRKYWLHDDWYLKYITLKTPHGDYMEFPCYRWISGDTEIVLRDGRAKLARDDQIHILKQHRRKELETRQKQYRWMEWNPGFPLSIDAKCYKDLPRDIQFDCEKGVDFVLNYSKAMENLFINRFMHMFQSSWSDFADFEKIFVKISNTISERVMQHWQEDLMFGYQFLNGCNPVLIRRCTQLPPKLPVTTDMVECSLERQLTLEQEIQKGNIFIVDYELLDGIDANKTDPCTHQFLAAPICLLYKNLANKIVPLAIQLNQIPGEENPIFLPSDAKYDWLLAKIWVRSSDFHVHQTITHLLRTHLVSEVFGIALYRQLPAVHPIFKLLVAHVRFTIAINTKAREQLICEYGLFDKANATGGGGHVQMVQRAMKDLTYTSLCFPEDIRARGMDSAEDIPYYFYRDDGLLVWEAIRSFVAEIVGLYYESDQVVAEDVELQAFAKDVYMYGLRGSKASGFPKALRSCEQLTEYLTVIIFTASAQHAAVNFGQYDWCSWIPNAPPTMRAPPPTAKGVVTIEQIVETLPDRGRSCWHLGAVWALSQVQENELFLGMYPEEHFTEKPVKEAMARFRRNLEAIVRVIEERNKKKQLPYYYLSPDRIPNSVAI
Kind of assay: 5-Lipoxygenase inhibiting activity (5-HETE formation, cytosol of peritoneal exudate cells). In kind it is biochemical, Hartley guinea pigs. The note with it: read-out: Inhibition rate (5-lipoxygenase); for inhibition at 1 µM: 1 μM in the reaction mixture; for inhibition at 10 µM: 10 μM in the reaction mixture. The procedure:
5-Lipoxygenase inhibiting activity of the compound of the present invention was measured referring to the method for measuring 5-lipoxygenase activity by K. Ochi et al. [Journal of Biological Chemistry (J. Biol. Chem.), 258, 5754(1983)].
Sterilized 2% solution of casein (pH 7) was injected intraperitoneally into Hartley guinea pigs in a volume of 5 ml/100 g body weight. Fifteen hours later, the guinea pigs were killed and peritoneal exudate cells thereof were collected. After the exudate cells were washed with 17 mM Tris--HCl buffer (pH 7.4) containing 0.74% ammonium to remove contaminating erythrocytes in the exudate cells suspension, the cells were washed with buffer A (130 mM NaCl, 1 mM EDTA, 25 mM sodium phosphate, pH 7.4). The washed cells were suspended in buffer B (50 mM sodium phosphate, 1 mM EDTA, 0.1% gelatin, pH 7.4) at 10^8 cells/ml, sonicated and centrifuged at 10,000×g for 20 minutes under the cold atmosphere. The obtained supernatant was further centrifuged at 105,000×g for 60 minutes under the cold atmosphere. The cytosol fraction was used as an enzyme solution.
The enzyme solution was preincubated with the […] in the presence of 1 mM CaCl2, 1 mM reduced gluthathione (GSH) and 2 mM ATP at 30° C. for 5 minutes in 0.2 ml of a reaction mixture and the mixture was further incubated at 30° C. for 5 minutes by adding 20 μM [1-^14 C] arachidonic acid (0.1 μCi) thereto. The test compounds were dissolved in ethanol to give the reaction mixture containing 2% ethanol as a final concentration. Only ethanol was added to the reaction mixture as a control group.
To the reaction mixture were added 2.5 ml of a mixture of chloroform and methanol (2/1 by volume) and 0.3 ml of 40 mM citric acid to stop the reaction. The mixture was vortexed and an organic solvent layer was evaporated to dryness under nitrogen gas. After dissolving the dried organic layer in a fixed amount of the mixture of chloroform and methanol (2/1 by volume), it was spotted on a silica gel plate (Kiesel gel 60F254, E. Merck) and products were separated using a developer (the organic solvent layer of ethyl acetate/water/2,2,4-trimethylpentane/acetic acid=11/10/5/2 by volume). After the radioactive position of the product was determined by means of a radioautography, an area equivalent to that of 5-hydroxyeicosatetraenoic acid (hereinafter referred to as "5-HETE") was scraped off, and then its radioactivity was measured with a liquid scintillation counter. With regarding the amount of the generated 5-HETE as the 5-lipoxygenase inhibiting activity, the inhibition rate (%) in comparison with the control group was calculated according to the following equation. [formula]

Assay [4] deals with Nycobacterium smegmatis ATCC 607. The assay can be described thus: Antibacterial activity (MIC) against acid-fast bacteria. In kind it is cell-based. As to conditions: 37° C., 40 to 42 hours. The procedure:
As for acid-fast bacteria, after cultured in glycerol broth medium, there was prepared a bacterial suspension for inoculation containing about 10^6 of the bacteria per 1 ml of the medium. On the other hand, there were prepared some glycerol Czapek agar plating media with adding the test compounds, and thereto the bacterial suspension for inoculation was streaked.

Among the data in patent US5089516A, “1-phenyl-3,5-pyrazolidinedione hydroxystyrene compounds which have tyrosine kinase inhibiting activity” (Kanegafuchi Kagaku Kogyo Kabushiki Kaisha, priority 1987, dated 1992) are inhibition, inhibition in vivo and MIC values, retold here.

In general, inhibition refers to the share of the control response that was lost under treatment. One may read the MIC as the lowest concentration found to suppress growth. Read a low MIC as a more susceptible organism.

T1 sequence (P00533 25-1210, one chain of several): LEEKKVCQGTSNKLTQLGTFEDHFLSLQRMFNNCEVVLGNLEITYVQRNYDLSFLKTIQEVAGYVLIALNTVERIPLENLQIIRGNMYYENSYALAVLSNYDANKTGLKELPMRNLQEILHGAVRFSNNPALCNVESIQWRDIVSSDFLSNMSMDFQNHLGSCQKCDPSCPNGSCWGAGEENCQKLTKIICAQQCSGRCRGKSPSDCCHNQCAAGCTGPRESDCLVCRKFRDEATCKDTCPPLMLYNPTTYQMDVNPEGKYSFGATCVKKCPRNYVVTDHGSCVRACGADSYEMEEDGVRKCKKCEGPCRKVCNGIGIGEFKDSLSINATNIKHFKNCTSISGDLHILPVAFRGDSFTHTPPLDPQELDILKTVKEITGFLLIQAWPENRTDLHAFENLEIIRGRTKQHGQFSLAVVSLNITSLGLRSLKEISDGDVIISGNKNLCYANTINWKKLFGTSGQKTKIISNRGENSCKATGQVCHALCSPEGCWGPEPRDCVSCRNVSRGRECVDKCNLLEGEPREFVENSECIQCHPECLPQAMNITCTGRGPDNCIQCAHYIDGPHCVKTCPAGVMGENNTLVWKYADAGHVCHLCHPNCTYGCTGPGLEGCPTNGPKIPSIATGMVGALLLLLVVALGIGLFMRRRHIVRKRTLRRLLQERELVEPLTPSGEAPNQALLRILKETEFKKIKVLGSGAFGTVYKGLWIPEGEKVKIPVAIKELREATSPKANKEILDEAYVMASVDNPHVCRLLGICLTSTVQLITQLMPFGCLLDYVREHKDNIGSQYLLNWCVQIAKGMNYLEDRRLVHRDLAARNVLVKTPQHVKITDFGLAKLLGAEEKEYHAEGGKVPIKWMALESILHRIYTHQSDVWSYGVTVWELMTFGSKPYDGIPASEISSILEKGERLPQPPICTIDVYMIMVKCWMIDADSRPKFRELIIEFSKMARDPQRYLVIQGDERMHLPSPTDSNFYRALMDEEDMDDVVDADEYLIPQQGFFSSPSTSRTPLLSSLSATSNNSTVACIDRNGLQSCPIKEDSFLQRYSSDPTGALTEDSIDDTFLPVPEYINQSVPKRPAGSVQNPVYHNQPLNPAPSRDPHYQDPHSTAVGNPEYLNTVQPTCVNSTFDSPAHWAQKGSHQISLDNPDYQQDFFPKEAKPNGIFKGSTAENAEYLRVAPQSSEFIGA

For the compound `O=C1Nc2ccccc2C1=Cc1cc(-c2ccccc2)c(O)c(-c2ccccc2)c1` [Compound 3], in assay [1], the inhibition at 1 µM was determined as 45%. Regarding `O=C1Nc2ccccc2S(=O)(=O)C1=Cc1cc(Cc2ccccc2)c(O)c(Cc2ccccc2)c1` [Compound 5], the inhibition at 1 µM in assay [1] is 42%. Moreover, the inhibition at 10 µM in assay [2] amounted to 87%.

Turning to `CCOc1cc(C=C2SC(=S)NC2=O)cc(CSc2ccccc2)c1O` [Compound 6], the inhibition at 10 µM in assay [2] worked out at 98%. On to `O=C1Nc2ccccc2C1=Cc1cc(CSc2ccccc2)c(O)c(OCc2ccccc2)c1` [Compound 12], for which, in assay [3] (1 mg/kg), the inhibition in vivo at 1 mg/kg was 32%. Further, on 5-lipoxygenase, the inhibition at 1 µM came out at 84%. Besides, the inhibition at 10 µM in assay [1] worked out at 30%. `COc1cc(C=C2C(=O)Nc3ccccc32)cc(Cc2ccccc2)c1O` [Compound 13]: the inhibition at 1 µM at 5-lipoxygenase stood at 86%. For `CCCCOc1cc(C=C2C(=O)Nc3ccccc32)cc(Cc2ccccc2)c1O` [Compound 14], the inhibition at 1 µM at 5-lipoxygenase came out at 27%; in assay [1] it was 43%. With `O=C1OCCC1=Cc1cc(Cc2ccccc2)c(O)c(Cc2ccccc2)c1` [Compound 17], in assay [1], the inhibition at 1 µM was determined as 25%.

As to `CCOc1cc(C=C(C#N)C(N)=O)cc(Cc2ccccc2)c1O` [Compound 21], in assay [1], the inhibition at 1 µM is 98%. For `COc1cc(C=C(C#N)C(N)=O)cc(Cc2ccccc2)c1O` [Compound 22], the inhibition at 10 µM at 5-lipoxygenase amounted to 63%. Moreover, the inhibition at 1 µM in assay [1] turned out to be 84%. For the compound `O=C1N=C(NCc2ccccc2)SC1=Cc1cc(-c2ccccc2)c(O)c(-c2ccccc2)c1` [Compound 25], the inhibition at 1 µM at 5-lipoxygenase was found to be 23%. The inhibition at 10 µM in assay [1] stood at 72%. Regarding `O=C1N=C(NCc2ccco2)SC1=Cc1cc(O)c(O)c(CSc2ccccc2)c1` [Compound 27], the inhibition at 1 µM in assay [1] stood at 58%; in assay [2] (1 μM in the reaction mixture), 73%. Turning to `CCOc1cc(C=C2SC(NCc3ccccc3)=NC2=O)cc(CSc2ccccc2)c1O` [Compound 28], the minimum inhibitory concentration (MIC) in assay [4] is no more than 15 µg/mL. In addition, in assay [1], the inhibition at 1 µM worked out at 66%.

In the case of `CCCCOc1cc(C=C2SC(NCc3ccccc3)=NC2=O)cc(CSc2ccccc2)c1O` [Compound 29], the inhibition at 1 µM was 86% at 5-lipoxygenase and 63% in assay [1]. As for `CC(C)c1cc(C=C2SC(NCc3ccc([N+](=O)[O-])cc3)=NC2=O)cc(C(C)C)c1O` [Compound 40], the results for the inhibition at 10 µM (on 5-lipoxygenase; in assay [1]) were 87% and 21%, respectively. With `CC(C)c1cc(C=C2SC(NCc3ccco3)=NC2=O)cc(C(C)C)c1O` [Compound 43], the inhibition in vivo at 5 mg/kg in assay [3] (5 mg/kg) came out at 21%. For the same compound, the inhibition at 1 µM at 5-lipoxygenase worked out at 53%. The inhibition at 10 µM in assay [1] was found to be 95%. Compound `CC(C)c1cc(C=C2SC(NCc3cccs3)=NC2=O)cc(C(C)C)c1O` [Compound 44] gave an MIC in assay [4] of no more than 6 µg/mL. The inhibition at 1 µM in assay [1] is 80%.
